From US20090163474A1, “FXR Agonists for the Treatment of Nonalcoholic Fatty Liver and Cholesterol Gallstone Diseases” (Wyeth, priority 2007, published 2009)
Like-named read-outs stand apart in the source and are kept apart here.

Columns and labels:
[1] = system: C57BL/6 mice fed a Paigen diet; assay: Paigen diet fed mice: serum, liver gene expression and liver histology; assay type: in vivo; details: 30 mg/kg orally once a day for 4 weeks
Method: Male C57BL/6 mice were fed a standard chow diet or a Paigen diet (TestDiet 32350 containing 7.5% Cocoa Butter, 1.25% cholesterol, and 0.5% cholic acid). Paigen diet fed mice were administered vehicle or 30 mg/kg FXR agonist, Compound A (isopropyl 3-(3,4-difluorobenzoyl)-1,1-dimethyl-1,2,3,6-tetrahydroazepino[4,5-b]indole-5-carboxylate) orally once a day for 4 weeks. Three hours after the final treatment, mice were euthanized and blood and liver were collected for analyses.
Real-time RT PCR analysis of liver RNA was performed. FIGS. 3A, 3B, and 3C show the expression levels of vascular cell adhesion molecule 1 (VCAM-1), intercellular adhesion molecule-1 (ICAM-1), and tumor necrosis factor α (TNFα). Expression levels were normalized to GAPDH, and the mean level of expression of each gene in mice fed a standard chow diet was defined as 1.0. 6 mice were tested in each group. Data are presented as the mean±SE.
Male C57BL/6 mice were fed a chow diet or a Paigen diet. Paigen fed mice were administered vehicle or 30 mg/kg Compound A orally once a day for 4 weeks. Three hours after the final treatment, mice were euthanized, and histological analysis of livers was performed. Frozen liver sections (5 μm) were prepared and stained with Oil Red O, hematoxylin and eosin (H&E), and Masson's trichrome (Trichrome).
Male C57BL/6 mice were fed a chow diet or a Paigen diet. Paigen fed mice were administered vehicle or 30 mg/kg Compound A orally once a day for 4 weeks. Three hours after the final treatment, mice were euthanized, and real-time RT PCR analysis of liver RNA was performed.

Hep3B cells = assay: IL-6 induced CRP secretion in Hep3B cells; assay type: cell-based, Human; details: for IC50: Homo sapiens, Hep3B, read-out: IC50 of inhibitory effect on CRP secretion
Method: Human hepatoma cells, Hep3B secrete the acute phase protein, C-reactive protein (CRP) upon IL-6 treatment. Cells were cotreated with Compound A to determine if Compound A could decrease IL-6 induced CRP secretion.
FIGS. 24A, 24B, and 24C show the levels of CRP secretion (pg/ml) in Hep3B cells after stimulation with IL-6 (10 ng/ml), or IL-6 (50 ng/ml), or IL-6 (10 ng/ml & IL-1β 20 ng/ml), and treated with vehicle (DMSO) or Compound A (5 μM). […] (*P<0.001, Hep3B/DMSO vs. Hep3B/Compound A).

[2] = system: C57BL/6 mice fed a methionine/choline deficient (MCD) diet; assay: MCD diet fed mice: serum, liver gene expression and liver histology; assay type: in vivo
Method: Male C57BL/6 mice were fed a standard chow diet or a methionine/choline deficient (MCD) diet (MCD diet; TD 90262, Harlan Teklad). MCD diet fed mice develop fibrosis and NAFLD including steatosis and NASH due to impaired mitochondrial β-oxidation and reduced hepatic triglyceride secretion.
Mice were administered vehicle or 30 mg/kg Compound A orally once a day for 4 weeks. Three hours after the final treatment, mice were euthanized, and blood and liver were collected for analyses.
FIGS. 11A and 11B show the expression levels of VCAM-1 and MCP-1, respectively. Real-time RT PCR analysis of liver RNA was performed. Expression levels were normalized to GAPDH, and the mean level of expression of each gene in vehicle treated mice fed a standard chow diet was defined as 1.0. 7 mice were tested in each group. Data are presented as the mean±SE.
FIGS. 13, 14, and 15 show representative liver sections from mice fed a standard chow diet, vehicle treated mice fed a MCD diet, and Compound A (30 mg/kg orally once a day) treated mice fed a MCD diet for 4 weeks.
Male C57BL/6 mice were fed a standard chow diet or a MCD diet and treated with either vehicle or 30 mg/kg Compound A orally once a day for 4 weeks. Three hours after the final treatment, mice were euthanized and liver expression of CYP2E1, a reactive oxygen species (ROS) generating microsomal enzyme, was analyzed.

[3] = system: C57Bl/6 mice fed a MCD diet (preformed NASH); assay: Preformed NASH in MCD diet fed mice; assay type: in vivo; details: MCD diet 2 weeks
Text: C57Bl/6 mice were fed a MCD diet for 2 weeks to induce the development of NASH to study the effect of Compound A treatment on preformed NASH. These mice were then maintained on the MCD diet while being treated with vehicle or Compound A. Mice were euthanized 2 weeks (2 w), and 4 weeks (4 w) after the beginning of treatment with vehicle or Compound A for analysis. As controls, mice were fed a chow diet or fed a MCD diet for 2 weeks, and then euthanized for analysis.

[4] = RT PCR, normalized to GAPDH, p<0.0001
[5] = 30 mg/kg orally once a day for 4 weeks, MCD diet
[6] = 30 mg/kg orally once a day for 4 weeks, MCD diet, RT PCR, p<0.001
[7] = 30 mg/kg orally once a day for 4 weeks, p<0.001
[8] = 30 mg/kg orally once a day, MCD diet for 4 weeks
[9] = then 2-week (P<0.001) and 4-week (P<0.01) treatment on MCD diet
[10] = then 2-week and 4-week treatment on MCD diet, P<0.01

CC(C)OC(=O)C1=CN(C(=O)c2ccc(F)c(F)c2)CC(C)(C)c2c1[nH]c1ccccc21 [Compound A, isopropyl 3-(3,4-difluorobenzoyl)-1,1-dimethyl-1,2,3,6-tetrahydroazepino[4,5-b]indole-5-carboxylate]
Paigen diet induced liver damage (histological analyses) [1]: attenuated Paigen diet induced liver damage
intracellular vacuoles characteristic of lipid droplets in liver (H&E and Trichrome) [1]: reduced the number and severity of the vacuoles
liver BSEP expression level, increase ([1]; Paigen diet): 2.41 fold
liver MDR2 expression level, increase ([1]; Paigen diet): 1.4 fold
liver SHP expression level, increase ([1]; Paigen diet): 4.85 fold
liver ICAM-1 expression level (Paigen diet induction) [1, 4]: significantly inhibited
liver TNFα expression level (Paigen diet induction) [1, 4]: significantly inhibited
liver VCAM-1 expression level (Paigen diet induction) [1, 4]: significantly inhibited
inflammatory cholangitis with portal inflammation in liver ([1]; histology): significantly more severe in the livers of vehicle treated compared to Compound A treated mice
serum alanine aminotransferase (ALT) activity level ([1]; mean±SE, vehicle 292.1±33.6 U/L, p<0.0001): 98.1±22.5 U/L
serum level of MCP-1 vs vehicle ([1]; p<0.0001): significantly reduced
neutral lipid accumulation in the liver (Oil Red O staining) ([1]; vs vehicle): reduction in neutral lipid accumulation
liver FAS expression, further induction ([1]; vs vehicle treated Paigen diet mice, p<0.0001): 2.4 fold
IL-6 induced CRP secretion (Hep3B cells; Compound A 5 μM, IL-6 10 ng/ml, IL-6 50 ng/ml, or IL-6 10 ng/ml & IL-1β 20 ng/ml, P<0.001 vs DMSO): inhibited
IC50 (Hep3B cells; 10 ng/ml of IL-6): 224 nM
IC50 (Hep3B cells; 50 ng/ml IL-6): 220 nM
liver FXR gene expression level [2, 5]: did not normalize
liver FXR target gene expression (SHP, BSEP) [2, 5]: normalized
liver MCP-1 expression [2, 6]: significantly inhibited
liver VCAM-1 expression [2, 6]: significantly inhibited
serum aspartate aminotransferase (AST) activity level ([2]; 30 mg/kg orally once a day for 4 weeks, MCD diet, mean±SE, vehicle 491±38.9 U/L, p<0.0001): 268±77 U/L
serum mKC level vs vehicle ([2]; 30 mg/kg orally once a day for 4 weeks, MCD diet, p<0.05): reduced
liver CYP2E1 expression levels ([2]; 30 mg/kg orally once a day for 4 weeks, chow or MCD diet (independent of MCD diet), p<0.001): significant inhibition
liver MMP-9 expression level (MCD diet induction) [2, 7]: inhibition of MCD diet induction
liver MMP-14 expression level (MCD diet induction) [2, 7]: inhibition of MCD diet induction
liver TIMP-1 expression level (MCD diet induction) [2, 7]: inhibition of MCD diet induction
inflammatory cell infiltration and fibrosis in liver (Trichrome staining) [2, 8]: more severe in the livers of vehicle treated compared to Compound A treated mice
inflammatory cell infiltration and portal inflammation in liver (H&E staining) [2, 8]: more severe in the livers of vehicle treated compared to Compound A treated mice
liver function, inflammation and fibrosis (histological analyses of liver sections) [2, 8]: preserved liver function, and reduced liver inflammation and fibrosis
neutral lipid accumulation in the liver (Oil Red O staining) [2, 8]: no effect
liver Col1a2 gene expression level vs vehicle [3, 9]: significantly lowered
liver MMP-2 gene expression level vs vehicle [3, 9]: significantly lowered
liver TIMP-1 gene expression level vs vehicle [3, 9]: significantly lowered
liver MCP-1 gene expression level vs vehicle [3, 10]: significantly lowered
liver VCAM-1 gene expression level vs vehicle [3, 10]: significantly lowered
serum level of ALT vs vehicle [3, 10]: significantly reduced
serum level of AST vs vehicle [3, 10]: significantly reduced
